Molecules are shown by their SMILES.

In this assay the target is PD-1/PD-L1 (Homo sapiens (Human), UniProt Q9NZQ7). Nature of the assay: PD-1/PD-L1 biochemical protein-protein interaction assay (ALPHA). As to conditions: 0.3 nM His tagged PD-L1, 2.5 nM biotinylated Fc-PD-1, 60 minutes at 25° C., read-out: IC50 PD-L1-PD1.
PD-1/PD-L1, sequence (Q9NZQ7 19-238): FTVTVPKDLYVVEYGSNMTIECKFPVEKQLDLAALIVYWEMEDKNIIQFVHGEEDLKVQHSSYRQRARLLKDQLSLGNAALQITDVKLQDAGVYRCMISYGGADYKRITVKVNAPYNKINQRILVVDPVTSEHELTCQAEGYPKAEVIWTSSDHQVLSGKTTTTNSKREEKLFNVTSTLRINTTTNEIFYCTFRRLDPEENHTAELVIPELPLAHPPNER
For orientation: IC50 means the midpoint of a concentration-inhibition curve. With `COc1nc(-c2cccc(-c3cccc(-c4cnc(CN5CCCC(F)(F)C5)c(OC)n4)c3Cl)c2Cl)cnc1CNC[C@@H]1CCC(=O)N1` [compound 271], the IC50 amounted to 1700 pM.

Consider `COc1nc(-c2cccc(-c3cccc(-c4cnc(CNC[C@H]5C[C@H](O)C5)c(OC)n4)c3Cl)c2Cl)ccc1CNC[C@@H]1CCC(=O)N1` [compound 656], for which the IC50 worked out at 167 pM. The result for `COc1nc(-c2cccc(-c3cccc(-c4cnc(CN5CC[C@@H](O)C5)c(OC)n4)c3Cl)c2Cl)cnc1CN1CC[C@@H](O)C1` [compound 130] reads 185 pM. Next, `COc1nc(-c2cccc(-c3cccc(-c4cnc(CN5CCC(c6ncccn6)C5)c(OC)n4)c3Cl)c2Cl)cnc1CNC[C@@H]1CCC(=O)N1` (some centres unmarked) [compound 408]: 139 pM; `COc1nc(-c2cccc(-c3cccc(-c4cnc(CN5CC(F)C5)c(OC)n4)c3Cl)c2Cl)cnc1CN1CC(F)C1` [compound 118]: 715 pM; `COc1nc(-c2cccc(-c3cccc(-c4cnc(CNCCOC(N)=O)c(OC)n4)c3Cl)c2Cl)cnc1CNCCOC(N)=O` [compound 454]: 64 pM. In the case of `COc1nc(-c2cccc(-c3cccc(-c4cnc(CN5CCC(C)(O)C5)c(OC)n4)c3Cl)c2Cl)cnc1CN1CCC(C)(O)C1` (centres unmarked) [compound 146], the IC50 turned out to be 130 pM. Next, `COc1nc(-c2cccc(-c3cccc(-c4cnc(CNC[C@@H]5CCC(=O)N5)c(OC)n4)c3Cl)c2Cl)cnc1CNCc1ncccn1` [compound 420]: 449 pM; `COc1nc(-c2cccc(-c3cccc(-c4cnc(CN[C@H]5CCOC5)c(OC)n4)c3Cl)c2Cl)cnc1CNC[C@@H]1CCC(=O)N1` [compound 359]: 132 pM; `COc1nc(-c2cccc(-c3cccc(-c4cnc5c(CN6CC7(C6)CN(C(C)=O)C7)cn(C)c5n4)c3Cl)c2Cl)cnc1CN1CC2(C1)CN(C(C)=O)C2` [compound 612]: 64 pM.

For the compound `COc1nc(-c2cccc(-c3cccc(-c4cnc(CN(C)C[C@@H]5CCC(=O)N5)c(OC)n4)c3Cl)c2Cl)cnc1CN(C)CCO` [compound 322], the IC50 came to 230 pM. Take `COc1nc(-c2cccc(-c3cccc(-c4cnc(CN)c(OC)n4)c3Cl)c2Cl)ccc1C1=NCCN1` [compound 583]: the IC50 worked out at 64 pM.

Turning to `COc1nc(-c2cccc(-c3cccc(-c4ccc5c(CN6CC7(CCC(=O)N7)C6)cn(C)c5n4)c3Cl)c2Cl)cnc1CN1CC2(CCC(=O)N2)C1` [compound 494], the IC50 is 139 pM. As to `COc1nc(-c2cccc(-c3cccc(-c4cnc(CNC[C@@H]5CCC(=O)N5)c(OC)n4)c3Cl)c2Cl)cnc1CNCC(=O)NC(C)C` [compound 581], the IC50 is 201 pM.

`COc1nc(-c2cccc(-c3cccc(-c4cnc(CNC[C@@H]5CCC(=O)N5)c(OC)n4)c3Cl)c2Cl)ccc1CNC1CCOCC1` [compound 162]: the IC50 is 116 pM. Next, `COc1nc(-c2cccc(-c3cccc(-c4cnc(CNCC5CCNC(=O)C5)c(OC)n4)c3Cl)c2Cl)cnc1CNCC1CCNC(=O)C1` (centres unmarked) [compound 660]: 135 pM; `COc1nc(-c2cccc(-c3cccc(-c4cnc(CN[C@H]5C[C@@](C)(O)C5)c(OC)n4)c3Cl)c2Cl)cnc1CNC[C@@H]1CCC(=O)N1` [compound 274]: 117 pM. Regarding `COc1nc(-c2cccc(-c3cc(F)cc(-c4cnc(CNC[C@@H]5CCC(=O)N5)c(OC)n4)c3Cl)c2Cl)cnc1CNC[C@@H]1CCC(=O)N1` [compound 398], the IC50 worked out at 195 pM. The result for `CN(C)c1nc(-c2cccc(-c3cccc(-c4cnc(CN5CC6(CNC(=O)C6)C5)c(Cl)n4)c3Cl)c2Cl)cnc1CN1CC2(CNC(=O)C2)C1` [compound 102] reads 223 pM. As to `COc1nc(-c2cccc(-c3cccc(-c4cnc(CNCC56CC(O)(C5)C6)c(OC)n4)c3Cl)c2Cl)cnc1CNC[C@@H]1CCC(=O)N1` [compound 545], the IC50 was 214 pM. The result for `COc1nc(-c2cccc(-c3cccc(-c4cnc(CNCC5(C#N)CCC5)c(OC)n4)c3Cl)c2Cl)cnc1CNC[C@@H]1CCC(=O)N1` [compound 213] reads 840 pM. With `CNc1nc(-c2cccc(-c3cccc(-c4cnc(CN(C)C[C@@H]5CCC(=O)N5)c(NC)n4)c3Cl)c2Cl)cnc1CN(C)C[C@@H]1CCC(=O)N1` [compound 319], the IC50 was found to be 3870 pM. `COc1nc(-c2cccc(-c3cccc(-c4cnc(CN5CCC(c6cccnc6)C5)c(OC)n4)c3Cl)c2Cl)cnc1CNC[C@@H]1CCC(=O)N1` (some centres unmarked) [compound 405]: the IC50 turned out to be 160 pM. Next, `COc1nc(-c2cccc(-c3cccc(-c4cnc(CN5CC6(CCC(=O)N6)C5)c(OC)n4)c3Cl)c2Cl)cnc1CN` [compound 595]: 64 pM; `OC1CN(Cc2ncc(-c3cccc(-c4cccc(-c5cnc(CN6CC(O)C6)c(N6CCC6)n5)c4Cl)c3Cl)nc2N2CCC2)C1` [compound 496]: 386 pM; `COc1nc(-c2cccc(-c3cccc(-c4cnc(CN5C[C@H](O)[C@@H](C#N)C5)c(OC)n4)c3Cl)c2Cl)cnc1CNC[C@@H]1CCC(=O)N1` [compound 266]: 243 pM.

In the case of `COc1nc(-c2cccc(-c3cccc(-c4cc(C)c(CN5CC6(CNC(=O)C6)C5)c(OC)n4)c3F)c2Cl)cnc1CN1CC2(CNC(=O)C2)C1` [compound 651], the IC50 amounted to 64 pM.

Consider `COc1nc(-c2cccc(-c3cccc(-c4cnc(CNC[C@@H]5CCC(=O)N5)c(OC)n4)c3Cl)c2Cl)ccc1CN[C@@H]1CNC(=O)C1` [compound 167], for which the IC50 turned out to be 262 pM. The result for `COc1nc(-c2cccc(-c3cccc(-c4cnc(CN5CCC(c6cn[nH]c6)C5)c(OC)n4)c3Cl)c2Cl)cnc1CNC[C@@H]1CCC(=O)N1` (some centres unmarked) [compound 441] reads 64 pM. As to `COc1nc(-c2cccc(-c3cccc(-c4cnc(CN5CC(c6ccccn6)C5)c(OC)n4)c3Cl)c2Cl)cnc1CNC[C@@H]1CCC(=O)N1` [compound 349], the IC50 worked out at 389 pM.

For `COc1nc(-c2cccc(-c3cccc(-c4cnc(CNC5CC(F)(F)C5)c(OC)n4)c3Cl)c2Cl)cnc1CNC[C@@H]1CCC(=O)N1` [compound 284], the IC50 was 816 pM.

Regarding `COc1nc(-c2cccc(-c3cccc(-c4cnc(CN[C@H]5CC[C@H](NC(C)=O)CC5)c(OC)n4)c3Cl)c2Cl)cnc1CNC[C@H]1CCC(=O)N1` [compound 195], the IC50 turned out to be 64 pM. The result for `COc1nc(-c2cccc(-c3cccc(-c4cnc(CNC[C@@H]5CCC(=O)N5)c(OC)n4)c3Cl)c2Cl)cnc1CNCc1ccn(C)n1` [compound 27] reads 90 pM; that for `COc1nc(-c2cccc(-c3cccc(-c4cnc(CN)c(OC)n4)c3Cl)c2Cl)cnc1CN` [compound 135], 733 pM. On to `COc1nc(-c2cccc(-c3cccc(-c4cnc(CN5CCC6(C5)NC(=O)NC6=O)c(OC)n4)c3Cl)c2Cl)cnc1CNC[C@@H]1CCC(=O)N1` (some centres unmarked) [compound 292], for which the IC50 was found to be 229 pM.

As to `COc1nc(-c2cccc(-c3cccc(-c4cnc(CN[C@H]5C[C@@](O)(CO)C5)c(OC)n4)c3Cl)c2Cl)cnc1CNC[C@@H]1CCC(=O)N1` [compound 600], the IC50 was found to be 64 pM. As to `COc1nc(-c2cccc(-c3cccc(-c4cnc(CNC5(c6ccccn6)CC5)c(OC)n4)c3Cl)c2Cl)cnc1CNC[C@@H]1CCC(=O)N1` [compound 421], the IC50 stood at 603 pM. The result for `COc1nc(-c2cccc(-c3cccc(-c4cnc(CN5CC6(C5)CS(=O)(=O)C6)c(OC)n4)c3Cl)c2Cl)cnc1CNC[C@@H]1CCC(=O)N1` [compound 367] reads 64 pM.

Source of the values: patent publication US10710986B2, “PD-1/PD-L1 inhibitors” (Gilead Sciences, Inc., priority 2018, dated 2020).
